US8334289B2, “Pyridin-2-one compounds and their use as modulators of the dopamine D3 receptor” (Abbott GmbH & Co. KG, priority 2004, dated 2012)

How the values were obtained:
[1] = molecular target: T1, human dopamine D2L receptors (long isoform) (Homo sapiens, UniProt P14416); assay: Dopamine D2L receptor binding, displacement of [125I]-iodospiperone; settings: Ki(D2L)/Ki(D3); membranes from HEK-293 cells with human D2L and D3 receptors
T1 construct: expressed in transfected cells; host or cells: HEK-293 (membranes)
T1 sequence (P14416 whole entry, canonical isoform): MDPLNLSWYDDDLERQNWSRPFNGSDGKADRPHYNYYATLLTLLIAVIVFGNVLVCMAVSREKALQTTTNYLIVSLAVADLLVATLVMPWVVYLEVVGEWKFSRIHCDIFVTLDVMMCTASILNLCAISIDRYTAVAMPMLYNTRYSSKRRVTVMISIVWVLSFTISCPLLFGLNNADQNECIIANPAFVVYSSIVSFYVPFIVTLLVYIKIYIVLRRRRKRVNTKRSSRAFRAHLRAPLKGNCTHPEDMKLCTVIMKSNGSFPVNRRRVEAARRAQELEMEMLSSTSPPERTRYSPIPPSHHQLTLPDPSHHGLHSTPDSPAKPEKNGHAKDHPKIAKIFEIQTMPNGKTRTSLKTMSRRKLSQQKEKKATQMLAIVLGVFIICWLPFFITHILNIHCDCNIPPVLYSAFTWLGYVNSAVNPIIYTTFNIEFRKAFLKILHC
Experimental: (§1) The substance to be tested was dissolved either in methanol/Chremophor® (BASF-AG) or in dimethyl sulfoxide and then diluted with water to the desired concentration.
(§2) Triplicate mixtures were carried out.
The incubation buffer contained 50 mM Tris, 120 mM NaCl, 5 mM KCl, 2 mM CaCl2, 2 mM MgCl2 and 0.1% bovine serum albumin. The buffer was adjusted to pH 7.4 with HCl.
(§3) After incubation at 25° C. for 60 minutes, the mixtures were filtered under vacuum through Whatman GF/B glass fiber filters using a cell harvester. The filters were transferred by a filter transfer system into scintillation vials. After addition of 4 ml of Ultima Gold® (Packard), the samples were shaken for one hour and then the radioactivity was counted in a beta counter (Packard, Tricarb 2000 or 2200CA). The cp values were converted into dpm by means of a standard quench series with the aid of the instrument's own program.
(§4) Evaluation of the inhibition plots took place by iterative nonlinear regression analysis using the Statistical Analysis System (SAS) similar to the “LIGAND” program described by Munson and Rodbard.

[2] = molecular target: T2, human dopamine D3 receptors (Homo sapiens, UniProt P35462); assay: Dopamine D3 receptor binding, displacement of [125I]-iodosulpiride; settings: membranes from HEK-293 cells stably expressing human D3 receptor; 0.1 nM [125I]-iodosulpiride; 25° C., 60 minutes
T2 construct: expressed in transfected cells; host or cells: HEK-293 (membranes)
T2 sequence (P35462 whole entry): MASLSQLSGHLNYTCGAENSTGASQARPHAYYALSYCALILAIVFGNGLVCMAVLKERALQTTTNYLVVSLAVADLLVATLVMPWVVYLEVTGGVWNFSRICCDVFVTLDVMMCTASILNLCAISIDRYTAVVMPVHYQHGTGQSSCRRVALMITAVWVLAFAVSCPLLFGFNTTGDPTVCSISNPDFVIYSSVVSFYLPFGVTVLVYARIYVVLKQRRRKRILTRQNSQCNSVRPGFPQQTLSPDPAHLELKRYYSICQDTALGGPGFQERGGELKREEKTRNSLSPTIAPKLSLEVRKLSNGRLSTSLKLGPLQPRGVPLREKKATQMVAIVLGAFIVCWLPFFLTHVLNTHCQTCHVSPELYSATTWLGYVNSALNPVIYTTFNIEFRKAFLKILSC
Experimental: as §1, §2
The incubation buffer contained 50 mM Tris, 120 mM NaCl, 5 mM KCl, 2 mM CaCl2, 2 mM MgCl2 and 0.1% bovine serum albumin, 10 μM quinolone, 0.1% ascorbic acid (prepared fresh each day). The buffer was adjusted to pH 7.4 with HCl.
as §3, §4

| Compound | Selectivity vs. D2L [1] | Ki [2] [nM] |
| --- | --- | --- |
| CCCc1cc(N2CCN(CCCCn3ccc(C)cc3=O)CC2)nc(C(C)(C)C)n1.Cl [Example 3, 4-(2-tert-Butyl-6-propylpyrimidin-4-yl)-1-[4-(4-methyl-2-oxopyridin-1(2H)-yl)butyl]piperazin-1-ium chloride] | 137 | 0.84 |
| CCCc1cc(N2CCN(CCCCn3cccc(OC)c3=O)CC2)nc(C(C)(C)C)n1 [Example 5, 1-{4-[4-(2-tert-Butyl-6-propylpyrimidin-4-yl)piperazin-1-yl]butyl}-3-methoxy-1H-pyridin-2-one] | 51 | 1.2 |
| COc1cccn(CCCCN2CCN(c3cc(C(F)(F)F)nc(C(C)(C)C)n3)CC2)c1=O [Example 6, 1-{4-[4-(2-tert-Butyl-6-trifluoromethylpyrimidin-4-yl)piperazin-1-yl]butyl}-3-methoxy-1H-pyridin-2-one] | 74 | 2.2 |
| CCCc1cc(N2CCN(CCCCn3cccc(C)c3=O)CC2)nc(C(C)(C)C)n1 [Example 7, 1-{4-[4-(2-tert-Butyl-6-propylpyrimidin-4-yl)piperazin-1-yl]butyl}-3-methyl-1H-pyridin-2-one] | 129 | 1.25 |
| Cc1cccn(CCCCN2CCN(c3cc(C(F)(F)F)nc(C(C)(C)C)n3)CC2)c1=O [Example 11, 1-{4-[4-(2-tert-Butyl-6-trifluoromethylpyrimidin-4-yl)piperazin-1-yl]butyl}-3-methyl-1H-pyridin-2-one] | 74 | 2.31 |
